“And” between values parts separate entries of the source, which are not always exact repeats. Identical values can stand only once.
Legend:
WT RXFP1 = molecular target: T1, WT RXFP1 (Homo sapiens, UniProt Q9HBX9); assay: HTRF cAMP assay in HEK293T cells transiently transfected with WT RXFP1; type: cell-based
T1 construct: expressed in transfected cells; host or cells: HEK293T, transient transfection, pcDNA3.1/Zeo(+)
T1 sequence (Q9HBX9 1-757): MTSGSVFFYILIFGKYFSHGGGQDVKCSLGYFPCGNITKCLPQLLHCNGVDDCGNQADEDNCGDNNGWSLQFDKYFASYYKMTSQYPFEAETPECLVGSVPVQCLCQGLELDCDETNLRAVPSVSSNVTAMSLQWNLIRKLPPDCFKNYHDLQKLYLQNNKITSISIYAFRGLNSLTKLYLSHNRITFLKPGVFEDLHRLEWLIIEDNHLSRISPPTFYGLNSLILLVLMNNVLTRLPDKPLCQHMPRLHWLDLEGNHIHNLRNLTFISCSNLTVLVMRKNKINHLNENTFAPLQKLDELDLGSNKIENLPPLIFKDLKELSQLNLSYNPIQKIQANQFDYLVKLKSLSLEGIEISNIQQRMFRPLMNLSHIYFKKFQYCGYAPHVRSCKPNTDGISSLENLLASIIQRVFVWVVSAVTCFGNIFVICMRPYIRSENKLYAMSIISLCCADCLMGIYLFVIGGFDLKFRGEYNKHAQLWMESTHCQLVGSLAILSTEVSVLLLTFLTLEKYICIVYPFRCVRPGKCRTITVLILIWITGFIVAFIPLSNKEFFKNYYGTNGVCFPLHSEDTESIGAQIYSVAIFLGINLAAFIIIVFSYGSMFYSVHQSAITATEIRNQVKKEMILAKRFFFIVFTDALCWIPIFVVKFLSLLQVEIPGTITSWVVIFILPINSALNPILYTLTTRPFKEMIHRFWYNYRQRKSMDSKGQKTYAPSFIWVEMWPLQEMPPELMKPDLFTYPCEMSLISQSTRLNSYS
Protocol: Fig. 2 6641 is an allosteric agonist of RXFP2. a HEK-RXFP2 cells co-treated with serial dilutions of INSL3 B dimer antagonist and 30 nM INSL3 or 0.28 µM 6641. HTRF cAMP dose-response inhibition curves were normalized to activity without antagonist co-treatment as 0% inhibition. b HTRF cAMP assay in HEK293T cells transiently transfected with WT or chimeric receptors. Chimera RXFP2-1 contains the extracellular domain of RXFP2 and the transmembrane domain of RXFP1, while chimera RXFP1-2 contains the extracellular domain of RXFP1 and the transmembrane domain of RXFP2. For each receptor, cAMP response induced by INSL3 and 6641 was normalized to FSK (2 µM) as 100% efficacy and DMSO vehicle as 0% efficacy. Emax and EC50 were calculated using four parameter nonlinear fit dose-response curves. Results are expressed as mean ± SEM of 3 independent experiments. Diagrams of the chimeric receptors were produced using GPCRdb.org[58], [59].
Complementary RXFP2-1 and RXFP1-2 chimeric receptors were used to further investigate the involvement of the RXFP2 extracellular and transmembrane domains on 6641 activity. RXFP2-1 has the extracellular domain of RXFP2 and transmembrane domain of RXFP1, and RXFP1-2 is its complement.
The HTRF Gs dynamic cAMP assay kit (CisBio, Bedford, MA) was used to measure intracellular cAMP accumulation in HEK293T cells (ATCC, Manassas, VA)[56]. […] The cell stock was verified mycoplasma free and authenticated by ATCC. Transient transfection was accomplished by treating cells in a 6-well plate with a mixture of 2 μg plasmid and 6 μL Lipofectamine 2000 (Invitrogen, Waltham, MA) per manufacturer’s protocol and incubating overnight. For cAMP measurement in 96-well format, HEK293T cells stably transfected with human RXFP2 (HEK-RXFP2), human RXFP1 (HEK-RXFP1), mouse Rxfp1 (HEK-Rxfp1) or transiently transfected with human RXFP1-RXFP2 chimeric receptors were seeded between 7500 and 30,000 cells per well, depending on cell line responsiveness, in serum-free DMEM medium and incubated overnight at 37 °C, 5% CO2. After 18 h, cells were treated with a titration of compound, 2 μM forskolin, or DMSO vehicle. Control wells were also treated with a titration of INSL3 (Phoenix Pharmaceuticals, Burlingame, CA) or human recombinant relaxin 2 (Peprotech, Cranbury, NJ). For the RXFP2 antagonist experiment, cells were co-treated with 0.28 μM compound or 30 nM INSL3 and a titration of the INSL3 B dimer antagonist[38],[39]. For the INSL3 allosteric modulation experiment, cells were co-treated with 0.025, 0.0025, or 0.00025 μM of compound and a titration of INSL3. […] Plates were incubated for 1 h at room temperature and the signal was read on a CLARIOstar plate reader (BMG Labtech, Ortenberg, Germany) at 665 and 620 nm emission wavelengths.

human FSHR = molecular target: T2, human FSHR (Homo sapiens, UniProt P23945); assay: HitHunter cAMP XS+ assay, cAMP Hunter cell line FSHR; type: cell-based; conditions: for RLU: replicates (1),(2)
T2 sequence (P23945 18-695): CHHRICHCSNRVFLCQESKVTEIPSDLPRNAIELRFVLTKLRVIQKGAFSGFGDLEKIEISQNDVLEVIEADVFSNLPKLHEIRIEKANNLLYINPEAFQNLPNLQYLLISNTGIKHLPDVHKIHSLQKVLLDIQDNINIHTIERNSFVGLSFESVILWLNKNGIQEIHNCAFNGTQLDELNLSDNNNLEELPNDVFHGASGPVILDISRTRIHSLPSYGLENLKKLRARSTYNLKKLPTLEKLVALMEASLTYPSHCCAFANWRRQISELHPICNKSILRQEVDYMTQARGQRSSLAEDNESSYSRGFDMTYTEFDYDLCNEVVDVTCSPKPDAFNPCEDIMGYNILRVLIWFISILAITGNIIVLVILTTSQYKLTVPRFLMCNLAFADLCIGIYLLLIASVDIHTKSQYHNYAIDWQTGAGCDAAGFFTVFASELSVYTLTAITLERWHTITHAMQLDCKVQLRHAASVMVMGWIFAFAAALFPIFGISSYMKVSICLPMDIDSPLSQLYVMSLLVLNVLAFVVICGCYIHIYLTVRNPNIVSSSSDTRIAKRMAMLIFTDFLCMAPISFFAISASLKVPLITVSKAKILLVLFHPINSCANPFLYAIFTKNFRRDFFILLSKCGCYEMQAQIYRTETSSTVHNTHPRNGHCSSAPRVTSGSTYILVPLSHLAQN
Excerpt: Results are reported as raw RLU values and represent the
mean ± SEM of 2 technical replicates.

## O=C1Nc2ccc(-c3cc(C(F)(F)F)cc(C(F)(F)F)c3)cc2C(=O)N2CCN(C(=O)COc3ccc(OC(F)(F)F)cc3I)C[C@@H]12 [compound 6641]
WT RXFP1; 6641, individual experiments
  EC50 (1)-(3): Inactive
WT RXFP1; 6641, mean of 3
  EC50 (AVERAGE): Inactive
WT RXFP1; individual experiments, FSK (2 µM) = 100% efficacy
  Emax (1)-(3): Inactive
WT RXFP1; mean of 3, FSK (2 µM) = 100% efficacy
  Emax (AVERAGE): Inactive
Human FSHR; Hit Hunter cAMP assay
  cAMP response through FSHR: did not result in an increase of cAMP level
Human FSHR; Log [M] -4.70
  RLU: 1000 RLU and 1200 RLU
Human FSHR; Log [M] -5.18
  RLU: 1080 RLU
Human FSHR; Log [M] -5.65
  RLU: 960 RLU and 1040 RLU
Human FSHR; Log [M] -6.13
  RLU: 880 RLU and 920 RLU
Human FSHR; Log [M] -6.61
  RLU: 840 RLU and 960 RLU
Human FSHR; Log [M] -7.08
  RLU: 960 RLU and 1040 RLU
Human FSHR; Log [M] -7.56
  RLU: 1280 RLU and 720 RLU
Human FSHR; Log [M] -8.04
  RLU: 880 RLU and 960 RLU
Human FSHR; Log [M] -8.52
  RLU: 1040 RLU and 1080 RLU
Human FSHR; Log [M] -8.99
  RLU: 720 RLU and 880 RLU
